Values quoted from earlier work as cited in patent publication US20240238194A1, “ORODISPERSIBLE EFFERVESCENT TABLET COMPRISING BUDESONIDE FOR USE IN THE TREATMENT OF EOSINOPHILIC ESOPHAGITIS” (Dr. Falk Pharma GmbH, priority 2021, published 2024).

Conditions: in vivo

mucosal medication contact time, measured by scintigraphy: higher
Substance: budesonide [OVB]
